Six cell lines from the supplement of paper PMC10307832 can be followed below.

Experiment in all cases: relative viability (nuclei count vs DMSO), 5 days (fraction); higher = more cells survive
Compound in the test “BGJ398 + AZD7762”: CCN1CCN(c2ccc(Nc3cc(N(C)C(=O)Nc4c(Cl)c(OC)cc(OC)c4Cl)ncn3)cc2)CC1 [BGJ398] + NC(=O)Nc1cc(-c2cccc(F)c2)sc1C(=O)N[C@H]1CCCNC1 [AZD7762] (partner 0.2 µM)
In outline:
(§1)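 Medians of duplicate plates are given as relative viability. That measure is the nuclei count in treated wells divided by the count in vehicle wells. Counts were taken on 4× images of lung cancer cell lines in 1536-well plates, 5 days after pin-tool dosing the day after seeding with one drug alone or a fixed anchor-drug dose plus five library-drug doses (not always all listed) in √10 steps.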

Compound in the test “BGJ398 + OSI-027”: CCN1CCN(c2ccc(Nc3cc(N(C)C(=O)Nc4c(Cl)c(OC)cc(OC)c4Cl)ncn3)cc2)CC1 [BGJ398] + COc1cccc2cc(-c3nc([C@H]4CC[C@H](C(=O)O)CC4)n4ncnc(N)c34)[nH]c12 [OSI-027] (partner 0.5 µM)
In outline:
as §1

Compound in test [1]: C1=CC2=NC=CN=C2C=C1/C=C/3\C(=O)NC(=O)S3 + COc1cc2c(Oc3ccc(NC(=O)C4(C(=O)Nc5ccc(F)cc5)CC4)cc3F)ccnc2cc1OCCCN1CCOCC1 [Foretinib] (partner 0.25 µM)
In short, it runs like this: as §1

Compound in test [2]: C1=CC2=NC=CN=C2C=C1/C=C/3\C(=O)NC(=O)S3 + CS(=O)(=O)CCNCc1ccc(-c2ccc3ncnc(Nc4ccc(OCc5cccc(F)c5)c(Cl)c4)c3c2)o1 [Lapatinib] (partner 2 µM)
In short, it runs like this:
as §1

As for NCI-H1975, the relative viability in the test with BGJ398 + AZD7762 (first compound 0.01 µM) is 0.767; with BGJ398 + AZD7762 (first compound 0.03162 µM), 0.711; with BGJ398 + AZD7762 (first compound 0.1 µM), 0.78; with BGJ398 + AZD7762 (first compound 0.3162 µM), 0.666; with BGJ398 + AZD7762 (first compound 1 µM), 0.606; with BGJ398 + OSI-027 (first compound 0.01 µM), 0.71. The relative viability with BGJ398 + OSI-027 (first compound 0.03162 µM) worked out at 0.923; with BGJ398 + OSI-027 (first compound 0.1 µM) it was 0.736; with BGJ398 + OSI-027 (first compound 0.3162 µM), 0.629; with BGJ398 + OSI-027 (first compound 1 µM), 0.646; in test [1] (first compound 0.02 µM), 0.904; in test [1] (first compound 0.06325 µM), 1.03. For the same cell line, the relative viability in test [1] (first compound 0.2 µM) worked out at 0.992; in test [1] (first compound 0.6325 µM) it was 0.866; in test [1] (first compound 2 µM), 0.84; in test [2] (first compound 0.02 µM), 0.707; in test [2] (first compound 0.06325 µM), 1.24; in test [2] (first compound 0.2 µM), 0.907. Besides, the relative viability in test [2] (first compound 0.6325 µM) turned out to be 0.84; in test [2] (first compound 2 µM) it was 0.791.

For NCI-H1993, the relative viability with BGJ398 + AZD7762 (first compound 0.01 µM) was 0.953; with BGJ398 + AZD7762 (first compound 0.03162 µM), 0.85; with BGJ398 + AZD7762 (first compound 0.1 µM) it was 0.593; with BGJ398 + AZD7762 (first compound 0.3162 µM) it was 0.94; with BGJ398 + AZD7762 (first compound 1 µM), 0.803; with BGJ398 + OSI-027 (first compound 0.01 µM), 0.525. Also, the relative viability with BGJ398 + OSI-027 (first compound 0.03162 µM) is 0.535; in the test with BGJ398 + OSI-027 (first compound 0.1 µM) it was 0.564; in the test with BGJ398 + OSI-027 (first compound 0.3162 µM), 0.507; with BGJ398 + OSI-027 (first compound 1 µM), 0.649; in test [1] (first compound 0.02 µM), 0.694; in test [1] (first compound 0.06325 µM), 0.817. The relative viability in test [1] (first compound 0.2 µM) is 0.72; in test [1] (first compound 0.6325 µM), 0.748; in test [1] (first compound 2 µM), 0.578; in test [2] (first compound 0.02 µM), 0.784; in test [2] (first compound 0.06325 µM) it was 0.776; in test [2] (first compound 0.2 µM) it was 0.846. For the same cell line, the relative viability is 0.829 in test [2] (first compound 0.6325 µM) and 0.743 in test [2] (first compound 2 µM).

On to NCI-H2085, for which the relative viability stood at 1.04 in the test with BGJ398 + AZD7762 (first compound 0.01 µM); 0.974 with BGJ398 + AZD7762 (first compound 0.03162 µM); 0.948 in the test with BGJ398 + AZD7762 (first compound 0.1 µM); 0.884 with BGJ398 + AZD7762 (first compound 0.3162 µM); 0.963 with BGJ398 + AZD7762 (first compound 1 µM); 0.706 in the test with BGJ398 + OSI-027 (first compound 0.01 µM). For the same cell line, the relative viability was 0.673 with BGJ398 + OSI-027 (first compound 0.03162 µM); 0.84 with BGJ398 + OSI-027 (first compound 0.1 µM); 0.663 with BGJ398 + OSI-027 (first compound 0.3162 µM); 0.807 with BGJ398 + OSI-027 (first compound 1 µM); 0.966 in test [1] (first compound 0.02 µM); 1.09 in test [1] (first compound 0.06325 µM). Moreover, the relative viability came to 0.902 in test [1] (first compound 0.2 µM); 1.03 in test [1] (first compound 0.6325 µM); 0.882 in test [1] (first compound 2 µM); 0.725 in test [2] (first compound 0.02 µM); 0.635 in test [2] (first compound 0.06325 µM); 0.785 in test [2] (first compound 0.2 µM). In addition, the relative viability in test [2] (first compound 0.6325 µM) came out at 0.755; in test [2] (first compound 2 µM), 0.713.

As for NCI-H2087, the relative viability with BGJ398 + AZD7762 (first compound 0.01 µM) was 1.13; in the test with BGJ398 + AZD7762 (first compound 0.03162 µM), 1.23; in the test with BGJ398 + AZD7762 (first compound 0.1 µM) it was 1.23; in the test with BGJ398 + AZD7762 (first compound 0.3162 µM), 1.45; with BGJ398 + AZD7762 (first compound 1 µM), 1.5; with BGJ398 + OSI-027 (first compound 0.01 µM), 0.359. The relative viability is 0.639 in the test with BGJ398 + OSI-027 (first compound 0.03162 µM); 0.587 in the test with BGJ398 + OSI-027 (first compound 0.1 µM); 0.63 with BGJ398 + OSI-027 (first compound 0.3162 µM); 0.546 with BGJ398 + OSI-027 (first compound 1 µM); 1.12 in test [1] (first compound 0.02 µM); 0.974 in test [1] (first compound 0.06325 µM). The relative viability in test [1] (first compound 0.2 µM) came to 0.992; in test [1] (first compound 0.6325 µM) it was 0.975; in test [1] (first compound 2 µM) it was 0.931; in test [2] (first compound 0.02 µM) it was 0.859; in test [2] (first compound 0.06325 µM), 1.24; in test [2] (first compound 0.2 µM), 0.941. For the same cell line, the relative viability in test [2] (first compound 0.6325 µM) worked out at 0.98; in test [2] (first compound 2 µM), 0.931.

As for NCI-H2126, the relative viability in the test with BGJ398 + AZD7762 (first compound 0.01 µM) was 1.08; with BGJ398 + AZD7762 (first compound 0.03162 µM), 1.05; with BGJ398 + AZD7762 (first compound 0.1 µM), 1.05; with BGJ398 + AZD7762 (first compound 0.3162 µM), 1.06; with BGJ398 + AZD7762 (first compound 1 µM), 1.03; in the test with BGJ398 + OSI-027 (first compound 0.01 µM), 0.864. Also, the relative viability with BGJ398 + OSI-027 (first compound 0.03162 µM) amounted to 0.705; with BGJ398 + OSI-027 (first compound 0.1 µM), 0.664; with BGJ398 + OSI-027 (first compound 0.3162 µM), 0.721; with BGJ398 + OSI-027 (first compound 1 µM) it was 0.687; in test [1] (first compound 0.02 µM) it was 0.917; in test [1] (first compound 0.06325 µM), 0.987. Further, the relative viability in test [1] (first compound 0.2 µM) worked out at 1.2; in test [1] (first compound 0.6325 µM) it was 1.11; in test [1] (first compound 2 µM), 0.745; in test [2] (first compound 0.02 µM), 0.625; in test [2] (first compound 0.06325 µM), 0.898; in test [2] (first compound 0.2 µM) it was 0.758. Besides, the relative viability came to 0.739 in test [2] (first compound 0.6325 µM) and 0.361 in test [2] (first compound 2 µM).

As for NCI-H2170, the relative viability with BGJ398 + AZD7762 (first compound 0.01 µM) amounted to 0.906; in the test with BGJ398 + AZD7762 (first compound 0.03162 µM) it was 0.843; with BGJ398 + AZD7762 (first compound 0.1 µM), 1.01; in the test with BGJ398 + AZD7762 (first compound 0.3162 µM), 0.861; with BGJ398 + AZD7762 (first compound 1 µM), 0.912; with BGJ398 + OSI-027 (first compound 0.01 µM) it was 0.742. The relative viability with BGJ398 + OSI-027 (first compound 0.03162 µM) came to 0.606; with BGJ398 + OSI-027 (first compound 0.1 µM), 0.706; with BGJ398 + OSI-027 (first compound 0.3162 µM), 0.619; in the test with BGJ398 + OSI-027 (first compound 1 µM), 0.707; in test [1] (first compound 0.02 µM) it was 0.962; in test [1] (first compound 0.06325 µM) it was 1.12. Besides, the relative viability in test [1] (first compound 0.2 µM) was found to be 1.05; in test [1] (first compound 0.6325 µM), 1.01; in test [1] (first compound 2 µM), 1.02; in test [2] (first compound 0.02 µM), 0.278; in test [2] (first compound 0.06325 µM), 0.271; in test [2] (first compound 0.2 µM) it was 0.272. The relative viability in test [2] (first compound 0.6325 µM) was 0.251; in test [2] (first compound 2 µM), 0.246.
